Reference: ChEMBL document CHEMBL1201862, “PubChem BioAssay data set” (2004)
Calls of active or inactive are those of the source.

Legend:
[1] = biological target: 26S proteasome non-ATPase regulatory subunit 14 (Homo sapiens, UniProt O00487); assay: inhibition of proteasome subunit RPN11 – biochemical, fluorescence polarization, uHTS hits, confirmation (AID 602368); assay type: functional
[2] = biological target: 72 kDa type IV collagenase (Homo sapiens, UniProt P08253); assay: Dose Response validation of uHTS RPN11 inhibitor hits using a MMP-2 Fluorescence assay.; assay type: functional
[3] = enhancers of respiration in Yfh1-depleted yeast, dose response, Friedreich's ataxia, plus single-dose screen (AID 1465); assay type: functional;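 further: yeast depleted of Yfh1p frataxin homolog grown on glycerol needing respiration; WST-1 tetrazolium dye reduction as measure of cellular dehydrogenase metabolic activity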
Prothrombin = Prothrombin (Bos taurus, UniProt P00735); assay: thrombin inhibition, dose response, biochemical, fluorescence polarization, uHTS hits (AID 602369); assay type: functional
Cytochrome P450 2D6 = Cytochrome P450 2D6 (Homo sapiens, UniProt P10635); assay: qHTS Assay for Inhibitors and Substrates of Cytochrome P450 2D6. [Related pubchem assays: 410 ]; assay type: ADME; settings: read-out: Potency
Cytochrome P450 2C9 = Cytochrome P450 2C9 (Homo sapiens, UniProt P11712); settings: Potency
[4] = biological target: 5-hydroxytryptamine receptor 1E (Homo sapiens, UniProt P28566); assay: Counterscreen assay for S1P3 antagonists: Dose response cell-based high throughput screening assay to identify antagonists of the 5-Hydroxytryptamine Receptor Subtype 1E (5HT1E). [Related pubchem assays: 1429, 485 ]; assay type: functional
[5] = biological target: Sphingosine 1-phosphate receptor 3 (Homo sapiens, UniProt Q99500); assay: Dose response cell-based high throughput screening assay for antagonists of the Sphingosine 1-Phosphate Receptor 3 (S1P3). [Related pubchem assays: 1429, 485 ]; assay type: functional
Cytochrome P450 3A4 = Cytochrome P450 3A4 (Homo sapiens, UniProt P08684); settings: Potency;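 further: confirmatory qHTS run detecting inhibitors and substrates of CYP3A4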
[6] = biological target: Lysosomal acid glucosylceramidase (Homo sapiens, UniProt P04062); assay: Dose response cell-based high throughput screening assay to identify enhancers of beta-glucosidase activity. [Related pubchem assays: 784 ]; assay type: functional
[7] = biological target: Signal transducer and activator of transcription 3 (Homo sapiens, UniProt P40763); assay: STAT3 activators, late-stage profile, late-stage follow-up, cell-based, STAT1 reporter, BCL3 qPCR, cytotoxicity, panel member STAT3 Activation (AID 2049)
[8] = biological target: Inward rectifier potassium channel 2 (Mus musculus, UniProt P35561); assay: Manual electrophysiological patch clamp assay for SAR compounds that inhibit/block inward-rectifying potassium ion channel Kir2.1. [Related pubchem assays: 1843 (Summary assay for Kir2.1 inhibitor assays.), 1672 (Primary HTS of 305616 compounds where 2592 were identified as active.)]; assay type: functional
Fatty acid synthase [9] = biological target: T1, Fatty acid synthase (Homo sapiens, UniProt P49327); assay: FAS thioesterase domain inhibitors, dose response, biochemical, kinetic fluorescence intensity (AID 624326); assay type: functional;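 further: rate of fluorescence rise from hydrolysis of a fluorogenic O-methyl fluorescein ester substrate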
[10] = biological target: T2, Induced myeloid leukemia cell differentiation protein Mcl-1 (Homo sapiens, UniProt Q07820); assay: MCL1-BIM BH3 interaction inhibitors, dose response, biochemical, fluorescence polarization, BIM-BH3 peptide, 1536-well (AID 2217)
Fatty acid synthase [11] = biological target: T1, Fatty acid synthase; assay: FAS thioesterase domain inhibitors, dose response, biochemical, endpoint fluorescence intensity, uHTS hits (AID 624327); assay type: functional;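 further: fluorescence from hydrolysis of an O-methyl fluorescein acyl ester substrate by the enzyme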
Bcl-2-like protein 1 = Bcl-2-like protein 1 (Homo sapiens, UniProt Q07817); assay: BCL-XL inhibitors, dose response, selectivity assay for MCL1 inhibitor project, biochemical, fluorescence polarization, 1536-well (AID 2218)
[12] = biological target: T2, Induced myeloid leukemia cell differentiation protein Mcl-1; assay type: functional
Genome polyprotein = Genome polyprotein (dengue virus type 2, UniProt P29990); assay: Dengue-2 NS5 methyltransferase inhibitors, primary screen, biochemical, confirmation dose response (AID 588689); assay type: functional
HEK293 = assay: Fluorescence-based counterscreen for potentiators or agonists of NPY-Y2: cell-based high-throughput dose response assay to identify inhibitors of cyclic nucleotide gated ion channel (CNGC) activity. In this assay, the parental HEK293 cell line transfected with a cyclic-nucleotide gated ion channel (CNGC)-based cAMP sensor is used to measure inhibition of isoproterenol-induced CNGC activity by test compound.; assay type: functional; settings: Homo sapiens;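 further: stimulus is 1 µM isoproterenol at EC100 plus PDE inhibitor Ro 20-1724 at 25 µM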
[13] = biological target: T3, Neuropeptide Y receptor type 1 (Homo sapiens, UniProt P25929); assay: Fluorescence-based counterscreen for agonists of NPY-Y2: cell-based high-throughput dose response assay for agonists of NPY-Y1.; assay type: functional
T3 sequence (P25929 whole entry): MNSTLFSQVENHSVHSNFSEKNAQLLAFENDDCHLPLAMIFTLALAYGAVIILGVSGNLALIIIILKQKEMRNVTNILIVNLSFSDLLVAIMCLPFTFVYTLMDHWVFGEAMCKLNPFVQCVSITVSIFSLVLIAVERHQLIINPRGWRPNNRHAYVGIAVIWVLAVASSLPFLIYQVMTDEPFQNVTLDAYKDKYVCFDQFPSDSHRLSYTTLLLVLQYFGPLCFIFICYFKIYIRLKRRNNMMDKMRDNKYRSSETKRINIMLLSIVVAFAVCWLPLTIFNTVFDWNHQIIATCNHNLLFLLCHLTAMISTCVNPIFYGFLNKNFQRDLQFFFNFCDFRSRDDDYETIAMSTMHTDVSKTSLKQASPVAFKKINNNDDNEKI

[14] = biological target: T3, Neuropeptide Y receptor type 1; assay: Fluorescence-based counterscreen for potentiators or agonists of NPY-Y2: cell-based high-throughput dose response assay for potentiators or agonists of NPY-Y1.; assay type: functional
[15] = biological target: T4, Neuropeptide Y receptor type 2 (Homo sapiens, UniProt P49146); assay: Fluorescence-based cell-based high-throughput dose response assay for agonists of NPY-Y2. [Related pubchem assays: 1703 (Screening assay (CNGC inhibitors).), 1359 (Screening assay (NPY-Y2 potentiators or agonists).), 1304 (Screening assay (NPY-Y1 potentiators or agonists).), 1710 (Screening assay (NPY-Y2 agonists).), 1791 (Summary AID.)]; assay type: functional
T4 sequence (P49146 whole entry): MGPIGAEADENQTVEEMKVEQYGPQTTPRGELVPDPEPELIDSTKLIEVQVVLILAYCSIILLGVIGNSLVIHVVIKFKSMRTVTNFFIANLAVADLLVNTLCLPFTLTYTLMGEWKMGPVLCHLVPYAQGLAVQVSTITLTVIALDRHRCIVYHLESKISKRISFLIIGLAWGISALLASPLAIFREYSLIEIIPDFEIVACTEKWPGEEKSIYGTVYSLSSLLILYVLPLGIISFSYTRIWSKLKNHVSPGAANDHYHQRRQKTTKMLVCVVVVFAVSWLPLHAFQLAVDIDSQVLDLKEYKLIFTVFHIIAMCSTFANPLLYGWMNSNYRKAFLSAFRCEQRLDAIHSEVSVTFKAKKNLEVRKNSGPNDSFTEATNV

[16] = biological target: T4, Neuropeptide Y receptor type 2; assay: Fluorescence-based cell-based high-throughput dose response assay for potentiators or agonists of NPY-Y2. [Related pubchem assays: 1539 (Screening assay (NPY-Y2 potentiators or agonists).), 1703 (Screening assay (CNGC inhibitors).), 1359 (Screening assay (NPY-Y2 potentiators or agonists).), 1304 (Screening assay (NPY-Y1 potentiators or agonists).) …; assay type: functional
[17] = Luminescence Cell-Based Dose Confirmation HTS to Identify Inhibitors of Polyadenylation.; assay type: functional
Wee1-like protein kinase = Wee1-like protein kinase (Homo sapiens, UniProt P30291); assay: G2/M cell cycle arrest in HeLa, late-stage follow-up, mechanism study for Wee1 degradation inhibitor project, FACS, panel member Wee1 Degradation (AID 2088)
[18] = biological target: G2/mitotic-specific cyclin-B1 (Homo sapiens, UniProt P14635); assay: G2/M cell cycle arrest in HeLa, late-stage follow-up, mechanism study for Wee1 degradation inhibitor project, FACS, panel member Cyclin B Degradation (AID 2088)
Vero [19] = assay: cytotoxicity of synthesized analogs in Vero cells, SAR follow-up, cytotoxicity control for West Nile virus antiviral project, cell-based, set II (AID 2402); assay type: functional; settings: Chlorocebus sabaeus
Vero [20] = assay: Vero E6 cell cytotoxicity, SAR follow-up, cytotoxicity control for West Nile virus antiviral project, synthesized analogs (AID 2244); assay type: functional; settings: Chlorocebus sabaeus
[21] = biological target: Sphingosine 1-phosphate receptor 2 (Homo sapiens, UniProt O95136); assay: Dose Response Cell Based Assay for Agonists of the S1P2 Receptor of Purchased Analogues. [Related pubchem assays: 729, 843, 854, 736 ]; assay type: functional
[22] = Luminescence Cell-Based Dose Retest to Confirm Inhibitors of Cancer Stem Cells. [Related pubchem assays (depositor defined):AID2717, AID2721]; assay type: functional; settings: Homo sapiens
cells = assay type: functional, cell-based
[23] = inhibitors of SNCA 5'UTR-driven translation, confirmation, luminescence, H4 neuroglioblastoma cells, dose confirmation (AID 2454); assay type: functional, cell-based;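 further: H4 neuroglioblastoma cells carrying an alpha-synuclein 5'UTR luciferase reporter; potency for inhibition of the luciferase signal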
BJ [24] = assay: cytotoxicity toward BJ-TERT fibroblasts, dose response, cell-based, RAS-independent, luminescence (AID 1933); assay type: functional; settings: Homo sapiens
BJ [25] = assay: cytotoxicity toward BJ-TERT-LT-ST fibroblasts, dose response, cell-based, RAS-independent, luminescence (AID 1935); assay type: functional; settings: Homo sapiens;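 further: BJ fibroblasts immortalized with TERT plus LT and ST oncogenes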
[26] = cytotoxicity toward DRD oncogenic fibroblasts, dose response, cell-based, non-viral oncogenic, luminescence (AID 1934); assay type: functional; settings: Homo sapiens
[27] = inhibitors of SNCA 5'UTR-driven reporter translation, confirmation, H4 neuroglioma cells, luminescence (AID 1988); assay type: functional, cell-based
[28] = luciferase reporter signal reduction – luminescence, H4-C neuroglioblastoma cells, dose response (AID 2458); assay type: functional, cell-based;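 further: H4 neuroglioblastoma cells stably carrying a luciferase reporter gene fusion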
BJ [29] = assay: cells; assay type: functional, cell-based; settings: Homo sapiens
Staphylococcus aureus = assay: Inhibitors of Bacterial Quorum Sensing Structure Activity Relationship (SAR) Analysis: Dose Response Assay. [Related pubchem assays: 700, 527 ]; assay type: functional, organism-based
[30] = biological target: T5, Mannose-6-phosphate isomerase (Homo sapiens, UniProt P34949); assay: human PMI inhibitors, high substrate, primary screen, biochemical, fluorescence intensity, high mannose 6-phosphate (AID 1220)
T5 sequence (P34949 whole entry): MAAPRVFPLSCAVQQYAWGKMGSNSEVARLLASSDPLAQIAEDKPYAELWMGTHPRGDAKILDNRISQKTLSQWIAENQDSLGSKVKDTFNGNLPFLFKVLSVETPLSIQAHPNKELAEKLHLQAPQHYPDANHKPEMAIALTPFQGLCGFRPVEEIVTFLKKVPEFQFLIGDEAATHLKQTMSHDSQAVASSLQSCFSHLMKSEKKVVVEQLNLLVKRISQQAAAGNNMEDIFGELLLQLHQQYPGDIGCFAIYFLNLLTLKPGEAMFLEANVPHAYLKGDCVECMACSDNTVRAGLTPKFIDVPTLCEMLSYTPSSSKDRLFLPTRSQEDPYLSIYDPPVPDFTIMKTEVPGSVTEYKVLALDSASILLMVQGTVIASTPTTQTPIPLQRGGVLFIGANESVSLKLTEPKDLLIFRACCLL

[31] = inhibitors of Bluetongue virus cytopathic effect, confirmation, arbovirus, BSR cells (AID 1250); assay type: functional;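 further: protection from viral cytopathic effect measured as cell viability by ATP luminescence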
[32] = biological target: T5, Mannose-6-phosphate isomerase; assay: inhibitors of human PMI, primary screen, biochemical, fluorescence intensity, coupled assay (AID 1209)

T2 sequence (Q07820 whole entry, the tested form may be a part): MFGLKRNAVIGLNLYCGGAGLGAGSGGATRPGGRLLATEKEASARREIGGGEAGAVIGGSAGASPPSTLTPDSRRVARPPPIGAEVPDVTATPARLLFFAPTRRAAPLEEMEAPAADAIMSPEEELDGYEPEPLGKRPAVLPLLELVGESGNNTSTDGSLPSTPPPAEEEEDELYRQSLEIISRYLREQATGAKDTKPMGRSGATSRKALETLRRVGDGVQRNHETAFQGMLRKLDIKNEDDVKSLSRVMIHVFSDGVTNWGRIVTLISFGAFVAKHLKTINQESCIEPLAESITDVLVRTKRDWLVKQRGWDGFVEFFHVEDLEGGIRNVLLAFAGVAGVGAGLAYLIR
T1 sequence (P49327 whole entry, the tested form may be a part): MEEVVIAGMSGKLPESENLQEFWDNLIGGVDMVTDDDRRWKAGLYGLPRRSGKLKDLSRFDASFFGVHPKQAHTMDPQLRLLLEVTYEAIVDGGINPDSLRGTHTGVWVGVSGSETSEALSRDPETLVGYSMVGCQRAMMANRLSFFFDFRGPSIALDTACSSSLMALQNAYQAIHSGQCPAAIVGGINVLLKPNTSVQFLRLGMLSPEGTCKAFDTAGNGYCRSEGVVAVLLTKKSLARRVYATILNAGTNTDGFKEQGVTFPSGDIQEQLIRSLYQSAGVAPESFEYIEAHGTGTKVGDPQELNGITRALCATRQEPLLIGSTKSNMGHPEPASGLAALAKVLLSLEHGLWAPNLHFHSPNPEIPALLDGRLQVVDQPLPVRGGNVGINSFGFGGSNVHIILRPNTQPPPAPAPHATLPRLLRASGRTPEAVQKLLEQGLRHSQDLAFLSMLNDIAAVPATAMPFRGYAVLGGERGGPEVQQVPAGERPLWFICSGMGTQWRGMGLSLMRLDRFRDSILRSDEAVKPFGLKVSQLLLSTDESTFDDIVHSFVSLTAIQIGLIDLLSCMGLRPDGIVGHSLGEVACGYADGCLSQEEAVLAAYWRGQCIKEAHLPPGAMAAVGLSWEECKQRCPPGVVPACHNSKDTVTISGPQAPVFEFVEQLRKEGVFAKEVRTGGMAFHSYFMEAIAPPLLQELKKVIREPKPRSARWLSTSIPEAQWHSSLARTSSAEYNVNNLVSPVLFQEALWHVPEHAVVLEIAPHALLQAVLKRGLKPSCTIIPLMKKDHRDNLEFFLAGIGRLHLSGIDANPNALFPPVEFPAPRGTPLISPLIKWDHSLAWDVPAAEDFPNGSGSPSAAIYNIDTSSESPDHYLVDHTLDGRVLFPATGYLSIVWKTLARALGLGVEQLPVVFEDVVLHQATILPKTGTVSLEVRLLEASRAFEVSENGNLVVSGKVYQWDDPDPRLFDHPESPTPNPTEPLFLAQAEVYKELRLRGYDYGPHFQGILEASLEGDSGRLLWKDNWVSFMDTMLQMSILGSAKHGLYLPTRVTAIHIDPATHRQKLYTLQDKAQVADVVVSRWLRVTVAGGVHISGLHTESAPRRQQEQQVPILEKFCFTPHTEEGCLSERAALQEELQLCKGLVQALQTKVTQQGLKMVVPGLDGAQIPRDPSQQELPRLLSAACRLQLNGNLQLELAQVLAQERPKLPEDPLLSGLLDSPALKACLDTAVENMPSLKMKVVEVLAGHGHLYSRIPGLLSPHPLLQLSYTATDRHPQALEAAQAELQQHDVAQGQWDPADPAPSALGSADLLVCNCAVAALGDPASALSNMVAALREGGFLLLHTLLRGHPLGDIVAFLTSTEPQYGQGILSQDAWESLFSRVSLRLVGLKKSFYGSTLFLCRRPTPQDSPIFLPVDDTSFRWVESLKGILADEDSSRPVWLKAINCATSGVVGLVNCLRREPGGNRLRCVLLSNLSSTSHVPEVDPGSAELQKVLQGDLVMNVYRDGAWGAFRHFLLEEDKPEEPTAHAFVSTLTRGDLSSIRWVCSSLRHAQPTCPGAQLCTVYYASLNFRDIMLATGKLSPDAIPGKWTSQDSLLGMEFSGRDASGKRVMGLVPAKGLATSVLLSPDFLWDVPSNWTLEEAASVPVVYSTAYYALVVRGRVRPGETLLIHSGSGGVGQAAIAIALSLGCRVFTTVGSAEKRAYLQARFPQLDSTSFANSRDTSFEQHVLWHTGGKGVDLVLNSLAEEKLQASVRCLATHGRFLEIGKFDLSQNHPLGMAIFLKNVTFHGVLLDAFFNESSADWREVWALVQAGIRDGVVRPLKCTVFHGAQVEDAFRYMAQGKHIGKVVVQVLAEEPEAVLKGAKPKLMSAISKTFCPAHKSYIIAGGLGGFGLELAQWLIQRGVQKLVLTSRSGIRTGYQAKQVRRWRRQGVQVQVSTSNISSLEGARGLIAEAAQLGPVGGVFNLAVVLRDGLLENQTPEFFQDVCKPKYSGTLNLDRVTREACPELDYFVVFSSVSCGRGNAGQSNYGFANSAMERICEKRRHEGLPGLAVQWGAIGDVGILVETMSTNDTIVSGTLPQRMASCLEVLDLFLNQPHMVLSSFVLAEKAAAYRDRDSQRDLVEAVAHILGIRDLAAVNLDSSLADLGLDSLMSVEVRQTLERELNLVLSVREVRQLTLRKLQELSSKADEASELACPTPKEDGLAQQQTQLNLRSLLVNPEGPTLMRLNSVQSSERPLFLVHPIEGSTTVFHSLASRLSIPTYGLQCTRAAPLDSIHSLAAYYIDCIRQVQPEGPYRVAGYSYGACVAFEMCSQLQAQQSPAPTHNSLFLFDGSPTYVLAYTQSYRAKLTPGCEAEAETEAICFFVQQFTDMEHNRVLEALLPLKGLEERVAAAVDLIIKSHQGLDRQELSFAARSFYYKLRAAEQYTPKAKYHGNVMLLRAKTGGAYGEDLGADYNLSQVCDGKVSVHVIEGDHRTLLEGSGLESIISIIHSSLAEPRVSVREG
Sequence of Genome polyprotein (P29990 2492-3391 limits assumed): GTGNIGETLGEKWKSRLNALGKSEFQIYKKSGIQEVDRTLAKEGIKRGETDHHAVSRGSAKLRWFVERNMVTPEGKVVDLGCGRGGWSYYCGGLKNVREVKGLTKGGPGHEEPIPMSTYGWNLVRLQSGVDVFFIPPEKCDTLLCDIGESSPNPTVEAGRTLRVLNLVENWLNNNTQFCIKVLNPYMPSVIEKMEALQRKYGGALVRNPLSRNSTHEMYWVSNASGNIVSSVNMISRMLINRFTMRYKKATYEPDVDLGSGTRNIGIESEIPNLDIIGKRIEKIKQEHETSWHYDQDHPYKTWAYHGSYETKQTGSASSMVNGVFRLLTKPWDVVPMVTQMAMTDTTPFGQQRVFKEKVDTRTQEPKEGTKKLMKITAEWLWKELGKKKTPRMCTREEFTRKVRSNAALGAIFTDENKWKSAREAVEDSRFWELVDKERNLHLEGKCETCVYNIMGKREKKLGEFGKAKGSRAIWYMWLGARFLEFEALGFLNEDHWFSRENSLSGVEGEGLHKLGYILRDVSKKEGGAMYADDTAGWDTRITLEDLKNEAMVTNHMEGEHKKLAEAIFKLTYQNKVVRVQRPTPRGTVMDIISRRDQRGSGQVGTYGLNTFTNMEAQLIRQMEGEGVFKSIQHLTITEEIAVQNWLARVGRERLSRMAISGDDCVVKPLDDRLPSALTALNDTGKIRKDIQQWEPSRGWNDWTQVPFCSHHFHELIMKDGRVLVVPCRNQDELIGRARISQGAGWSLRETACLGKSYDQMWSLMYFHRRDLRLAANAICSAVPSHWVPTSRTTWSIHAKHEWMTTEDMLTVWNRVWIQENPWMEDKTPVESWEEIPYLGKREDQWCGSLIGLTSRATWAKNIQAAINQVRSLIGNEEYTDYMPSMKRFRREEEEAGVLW
Sequence of Cytochrome P450 2D6 (P10635 whole entry): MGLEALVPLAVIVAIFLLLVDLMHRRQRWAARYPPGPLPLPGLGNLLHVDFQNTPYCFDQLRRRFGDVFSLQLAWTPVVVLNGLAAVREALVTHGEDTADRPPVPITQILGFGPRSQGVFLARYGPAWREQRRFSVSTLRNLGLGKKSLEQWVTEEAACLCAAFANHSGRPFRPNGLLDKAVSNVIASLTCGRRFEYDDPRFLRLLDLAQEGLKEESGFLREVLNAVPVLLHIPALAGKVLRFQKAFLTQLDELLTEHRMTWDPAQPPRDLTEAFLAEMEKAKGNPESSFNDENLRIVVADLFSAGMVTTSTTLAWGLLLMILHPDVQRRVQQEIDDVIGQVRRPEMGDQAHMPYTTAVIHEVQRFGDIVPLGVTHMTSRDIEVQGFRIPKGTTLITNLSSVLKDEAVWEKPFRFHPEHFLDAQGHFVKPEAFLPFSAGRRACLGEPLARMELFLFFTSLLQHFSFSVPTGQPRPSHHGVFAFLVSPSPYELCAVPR
Sequence of Signal transducer and activator of transcription 3 (P40763 whole entry): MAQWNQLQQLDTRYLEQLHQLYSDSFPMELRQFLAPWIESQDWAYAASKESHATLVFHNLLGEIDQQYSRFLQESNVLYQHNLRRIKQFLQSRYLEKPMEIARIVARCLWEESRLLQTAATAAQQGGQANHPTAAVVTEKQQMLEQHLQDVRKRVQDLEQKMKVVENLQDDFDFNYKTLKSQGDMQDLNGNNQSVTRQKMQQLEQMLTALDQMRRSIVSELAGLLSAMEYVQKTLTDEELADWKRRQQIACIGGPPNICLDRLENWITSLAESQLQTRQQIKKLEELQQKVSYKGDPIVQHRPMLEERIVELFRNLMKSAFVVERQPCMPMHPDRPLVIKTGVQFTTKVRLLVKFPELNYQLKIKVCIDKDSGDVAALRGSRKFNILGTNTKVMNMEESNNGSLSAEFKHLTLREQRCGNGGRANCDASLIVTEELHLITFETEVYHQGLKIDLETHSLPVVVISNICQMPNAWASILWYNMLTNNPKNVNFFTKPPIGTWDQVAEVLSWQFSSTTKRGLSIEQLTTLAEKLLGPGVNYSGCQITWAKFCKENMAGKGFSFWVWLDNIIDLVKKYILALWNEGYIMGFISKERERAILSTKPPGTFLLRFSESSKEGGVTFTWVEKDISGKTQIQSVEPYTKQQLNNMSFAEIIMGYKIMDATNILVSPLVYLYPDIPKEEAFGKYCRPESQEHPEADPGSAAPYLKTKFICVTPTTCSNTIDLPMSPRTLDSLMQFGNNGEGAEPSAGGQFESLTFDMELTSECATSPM

CC(=O)N1CCc2cc(NN=C3C(=O)CC(C)(C)CC3=O)ccc21
IC50 [1]: 35.5 µM (active) | IC50 [2]: > 100 µM (inactive) | EC50 [3]: > 100 µM (active) | IC50 (Prothrombin): 31.5 µM (active)

CC(=O)OC(C)(C)/N=N\c1ccc(Br)cc1
AC50 (Cytochrome P450 2D6): 3.16 µM (inconclusive) | AC50 (Cytochrome P450 2C9): 5.01 µM (inconclusive)

CSc1ccccc1NC(=O)C1CC(c2ccccc2O)=NO1 (stereo not drawn)
IC50 [4]: > 50 µM (not active) | IC50 [5]: > 50 µM (not active)

C[C@@H]1CCC2[C@@H](C)[C@@H](O)O[C@@H]3O[C@@]4(C)CC[C@@H]1[C@@]23OO4 (stereo partly drawn)
AC50 (Cytochrome P450 3A4): 12.6 µM (inconclusive)

N#Cc1c2n(c3c(=O)n(Cc4ccccc4Cl)cnc13)CCCCC2
EC50 [6]: > 50 µM (not active)

COc1ccc(OC)c(NC(=O)c2cc(CN3CCCC3)on2)c1
EC50 [7]: > 55.7 µM (inactive)

COc1ccc(CNCc2cc(F)cc(F)c2)cc1
IC50 [8]: 7.22 µM (active)

O=C(O)COc1ccccc1C(Nc1ccccn1)c1cc(Cl)c2cccnc2c1O (stereo not drawn)
IC50 (Fatty acid synthase [9]): 14.3 µM (active) | IC50 [10]: 1.74 µM (active) | IC50 (Fatty acid synthase [11]): 18.5 µM (active) | IC50 (Bcl-2-like protein 1): > 109 µM (not active) | IC50 [12]: 9.35 µM (active) | IC50 (Genome polyprotein): 43.3 µM (active)

Cc1cccc2c(N)c3c(nc12)CCCC3.O=C(O)c1cc([N+](=O)[O-])ccc1Cl
EC50 (HEK293): 8.74 µM (active) | EC50 [13]: 3.41 µM (active) | EC50 [14]: 5.53 µM (active) | EC50 [15]: 3.65 µM (active) | EC50 [16]: 5.24 µM (active)

CC(C)=CCOc1c2ccoc2cc2oc(=O)ccc12 [ISOIMPERATORIN]
EC50 [17]: > 120 µM (not active)

Cc1cccc(CC(=O)Nc2cc(C)nn2-c2nc(C)cc(=O)[nH]2)c1
EC50 (Wee1-like protein kinase): > 49.7 µM (inactive) | EC50 [18]: > 49.7 µM (inactive)

O=c1c2cc(Cl)cc(Cl)c2nc2n1CCC2
CC50 (Vero [19]): > 100 µM (active) | CC50 (Vero [20]): > 40 µM (active)

Cc1cc(C(=O)CN2C(=O)C(=O)N(Cc3ccccc3)C2=O)c(C)n1Cc1ccccc1
EC50 [21]: > 30 µM (not active) | AC50 [22]: 2.54 µM (active)

CCOc1ccc(S(=O)(=O)Nc2cc(OC)ccc2OC)cc1
EC50 (cells): 0.839 µM (active) | EC50 [23]: 0.947 µM (active) | EC50 (BJ [24]): 0.451 µM (active) | EC50 (BJ [25]): 0.495 µM (inconclusive) | EC50 [26]: 0.965 µM (inconclusive) | EC50 [27]: < 0.1 µM (active) | EC50 [28]: 0.553 µM (active) | EC50 (BJ [29]): 21.2 µM (active)

CC(C)c1ccc(NC(=O)C(c2ccc3c(c2)OCO3)N2CCCCC2)cc1 (stereo not drawn)
IC50 (Staphylococcus aureus): 0.254 µM (active)

Cc1cc(/N=C/c2c(O)ccc3cc(Br)ccc23)no1
IC50 [30]: > 50 µM (not active) | IC50 [31]: 31.8 µM (active) | IC50 [12]: > 54 µM (not active) | IC50 [32]: > 50 µM (not active)
